The record followed here is the NIST ThermoML archive (doi:10.1021/acs.jced.6b00985).

The nature of data set [1]: refractive index (Na D-line) (dimensionless). As to conditions: 293.15 K; 101.33 kPa; Liquid; Standard Abbe refractometry.
The conditions of data set [2]: 293.15 K; 101.33 kPa; Liquid; Vibrating tube method.

The structures appear in SMILES notation. ± gives the expanded uncertainty stated by the source.

In general, refractive index refers to the speed of light in vacuum divided by its phase velocity in the sample. For orientation: mass density means mass per unit of volume.

Regarding `OC1CCCC1` [cyclopentanol], the refractive index in data set [1] worked out at 1.4531 ± 0.0011. The mass density in data set [2] is 948.7 ± 8 kg/m3.

For the compound `CCC(=O)O` [propanoic acid], the refractive index in data set [1] was 1.3809 ± 0.0011. Further, the mass density in data set [2] is given as 988 ± 8 kg/m3.

For the compound `CCCCOC(=O)/C=C\C(=O)OCCCC` [dibutyl cis-butendioate], the refractive index in data set [1] worked out at 1.4452 ± 0.0012. For the same compound, in data set [2], the mass density came out at 990.1 ± 8.2 kg/m3.

As to `C1CCCC1` [cyclopentane], the refractive index in data set [1] was 1.4066 ± 0.0011. Moreover, the mass density in data set [2] is listed as 745.7 ± 8 kg/m3.

On to `CCCCCCC(C)=O` [2-octanone], for which the refractive index in data set [1] is recorded as 1.4151 ± 0.0011. The mass density in data set [2] is recorded as 819.9 ± 8 kg/m3.
